# Measurements: paper PMC3472742, “Bio-Guided Isolation of the Cytotoxic Terpenoids from the Roots of Euphorbia kansui against Human Normal Cell Lines L-O2 and GES-1” (International Journal of Molecular Sciences, 2012)
# Like-named read-outs stand apart in the source and are kept apart here.
# Tests used:
# [1] = test system: human normal liver cells L-O2; assay: MTT cell proliferation (cytotoxicity) assay on human normal liver cells L-O2; type: cell-based; conditions: for IC50: 48 h, pure compounds, MTT, n = 6, read-out: IC50 L-O2 (proliferation inhibition)
# Method: (§1) Human normal liver cell L-O2 was kindly donated by the School of Life Science, Nanjing Normal University (Nanjing, China), and Human normal gastric epithelial cell GES-1 was kindly donated by the Department of Gastroenterology, Nanjing Drum Tower Hospital (Nanjing, China). Human normal liver cell LO-2 was routinely cultured in DMEM medium, supplemented with 10% (v/v) fetal bovine serum (FBS), 100 U/mL of penicillin and 100 μg/mL of streptomycin in a humidified atmosphere with 5% CO2 at 37 °C in an incubator. The culture medium was changed every day. Cultures were dissociated with 0.25% trypsase in phosphate buffered (pH 7.2~7.4) saline (PBS). Human normal gastric epithelial cell GES-1 was routinely cultured in DMEM medium, supplemented with 15% (v/v) calf serum (CS), 100 U/mL of penicillin and 100 μg/mL of streptomycin in a humidified atmosphere with 5% CO2 at 37 °C in an incubator. The culture medium was changed every two days. Cultures were dissociated with 0.25% trypsase and 0.05% EDTA in PBS (pH 7.2~7.4).
# (§2) Cytotoxicity activity was assayed by MTT method as described. Briefly, cells were seeded in 96-well plates (Costar, Corning Co., Ltd., Beijing, China) with 100 μL at a concentration of cell suspension of 1.0 × 10_4 cells/mL (L-O2 cell) and 1.0 × 10_5 cells/mL (GES-1 cell), and incubated for 24 h at 37 °C in a humidified atmosphere of 5% CO2 in an incubator.
# (§3) Every sample was solubilized in dimethyl sulfoxide (DMSO) to a concentration of 10 mg/mL and stored at 4 °C, then diluted with complete medium to the desired series concentration before treating the cells. Each solution was added into 96-well plates with 100 μL per well, repeated 6 well. Cells of the control groups were treated with the same volume of medium. The treated cells with different groups were incubated for 48 h at 37 °C in a humidified atmosphere of 5% CO2 in an incubator. Then, the treated cells were added with 20 μL/well of MTT (5.0 mg/mL), and incubated for a further 4 h in an incubator. The growth medium was removed from all the wells, and 150 μL DMSO were added to each well. The plates were shaken gently for 10 min to blend the mixture. The absorbance value of each well was read at 490 nm using a microplate reader. All experiments were performed at least three times. The inhibition rate of cell proliferation was calculated according to the formula:
# (§4) (1) cell inhibition (%)=1-sample solution absorbance value/control absorbance value)×100%
# (§5) The results were expressed as an inhibition ratio and IC50 (concentration that inhibits 50% of cell growth). The data were analyzed with software SPSS 15.0 (SPSS Inc.: Chicago, IL, USA). The anti-proliferation activity is more significant when the IC50 is smaller.
# [2] = test system: human normal gastric epithelial cell GES-1; assay: MTT cell proliferation (cytotoxicity) assay on human normal gastric epithelial cells GES-1; type: cell-based; conditions: for IC50: pure compounds, MTT, 48 h, n = 6, read-out: IC50 GES-1 (proliferation inhibition); for inhibition activity on GES-1 cell lines growth vs control, dose-dependent: Figure 2
# Method: as §1, §2, §3, §4, §5
# [3] = concentration range 0.78–12.5 μg/mL, Figure 3
# [4] = concentration range 0.39–6.25 μg/mL
# [5] = concentration range 0.78–12.5 μg/mL
smiles,measurement,setting,value
"CC(C)=CCC[C@H](C)[C@@H]1CC[C@]2(C)C3=C(CC[C@@]12C)[C@@]1(C)CC[C@H](O)C(C)(C)C1CC3=O (stereo partly drawn) [Compound 11, epi-kansenone]",IC50,[1]; Homo sapiens,17.8 µM
same,"inhibition activity on L-O2 cell lines growth vs control, dose-dependent",[1]; [3],significant inhibition activity
same,IC50,"[2]; Homo sapiens, GES1, 48 h",8.04 µM
same,"inhibition activity on GES-1 cell lines growth vs control, dose-dependent",[2]; [4],significant inhibition activity
same,melting point,,116 to 118 °C
"CCCCCC=CC=CC(=O)OC1C(C)=CC23C(=O)C(C=C(COC(C)=O)C(O)C12O)C1C(CC3C)C1(C)C (stereo not drawn) [Compound 6, 3-O-(2′E,4′E-Decadienoyl)-20-O-acetylingenol]","inhibition activity on L-O2 cell lines growth vs control, dose-dependent",[1]; [3],significant inhibition activity
same,IC50,[1],8.22 µM
same,"inhibition activity on GES-1 cell lines growth vs control, dose-dependent",[2]; [4],significant inhibition activity
same,IC50,[2],6.67 µM
"CCCCCC=CC=CC(=O)OC1C(C)=CC23C(=O)C(C=C(COC(C)=O)C(O)C12O)C1C(CC3C)C1(C)C (stereo not drawn) [Compound 5, 3-O-(2′E,4′Z-Decadienoyl)-20-O-acetylingenol]",IC50,[1]; Homo sapiens,12.4 µM
same,"inhibition activity on L-O2 cell lines growth vs control, dose-dependent",[1]; [3],significant inhibition activity
same,IC50,"[2]; Homo sapiens, GES1, 48 h",8.51 µM
same,"inhibition activity on GES-1 cell lines growth vs control, dose-dependent",[2]; [5],significant inhibition activity
"CC1=CC23C(=O)C(C=C(C)C(OC(=O)c4ccccc4)C2(O)C1O)C1C(CC3C)C1(C)C (stereo not drawn) [Compound 9, 5-O-Benzoyl-20-deoxyingenol]",IC50,[1]; Homo sapiens,34.5 µM
same,"inhibition activity on L-O2 cell lines growth vs control, dose-dependent","[1]; concentration range 1.56–25 μg/mL, Figure 3",significant inhibition activity
same,IC50,"[2]; Homo sapiens, GES1, 48 h",22 µM
same,"inhibition activity on GES-1 cell lines growth vs control, dose-dependent",[2]; concentration range 1.56–25 μg/mL,significant inhibition activity
"C=C1C(OC(=O)c2ccccc2)C(O)C(=O)C(C)(C)C2OC2C(C)C(=O)C2(O)C(C1OC(=O)c1ccccc1)C(OC(C)=O)C(C)(O)C2OC(C)=O (stereo not drawn) [Compound 2, kansuinine B]",IC50,[1]; Homo sapiens,> 100 µM
same,IC50,"[2]; Homo sapiens, GES1, 48 h",> 100 µM
"CCCCCC=CC=CC(=O)OC1C(C)=CC23C(=O)C(C=C(C)C(O)C12O)C1C(CC3C)C1(C)C (stereo not drawn) [Compound 7, 3-O-(2′E,4′Z-Decadienoyl)-20-deoxyingenol]",IC50,[1]; Homo sapiens,13.1 µM
same,"inhibition activity on L-O2 cell lines growth vs control, dose-dependent",[1]; [3],significant inhibition activity
same,IC50,"[2]; Homo sapiens, GES1, 48 h",3.53 µM
same,"inhibition activity on GES-1 cell lines growth vs control, dose-dependent",[2]; [5],significant inhibition activity
"C=C1[C@H](OC(C)=O)[C@@H](OC(=O)c2ccccc2)[C@@H](OC(C)=O)C(C)(C)[C@H]2O[C@](O)([C@H](C)C2=O)[C@@]2(OC(C)=O)C[C@H](C)[C@H](OC(C)=O)[C@@H]2[C@H]1OC(C)=O [Compound 1, kansuinine A]",IC50,[1]; Homo sapiens,> 100 µM
same,IC50,"[2]; Homo sapiens, GES1, 48 h",> 100 µM
"CC(C)=CCC[C@@H](C)[C@@H]1CC[C@]2(C)C3=C(CC[C@@]12C)[C@@]1(C)CC[C@H](O)C(C)(C)[C@@H]1CC3 [Compound 12, euphol]",IC50,[1]; Homo sapiens,> 100 µM
same,IC50,"[2]; Homo sapiens, GES1, 48 h",> 100 µM
"CC1=CC2C(=O)C3(C=C(C)C(OC(=O)c4ccccc4)C3(O)C1O)C(C)CC1C2C1(C)C (stereo not drawn) [Compound 8, 3-O-Benzoyl-20-deoxyingenol]",IC50,[1]; Homo sapiens,70.8 µM
same,inhibition activity on L-O2 cell lines growth vs control,"[1]; concentration range 3.125–50 μg/mL, Figure 3",significant inhibition activity
same,IC50,"[2]; Homo sapiens, GES1, 48 h",23.5 µM
same,"inhibition activity on GES-1 cell lines growth vs control, dose-dependent",[2]; [5],significant inhibition activity
"CC(=O)OC1C(C)=CC23C(=O)C(C=C(C)C(OC(=O)c4ccccc4)C12O)C1C(CC3C)C1(C)C (stereo not drawn) [Compound 4, kansuiphorin C]",IC50,[1]; Homo sapiens,> 100 µM
same,IC50,"[2]; Homo sapiens, GES1, 48 h",> 100 µM
